Measurements as given in patent US20130102493A1, “GENE EXPRESSION ANALYSES FOR CHARACTERIZING AND IDENTIFYING GENOTOXIC COMPOUNDS” (MERCK PATENT GESELLSCHAFT MIT BESCHRANKTER HAFTUNG, priority 2010, published 2013).
Like-named read-outs stand apart in the source and are kept apart here. Marks after values point to notes of the source that are not given here. *1 amine or outer side, *2 acyl side, *3 side chain or, on linkers, in order; H or OH if unused. Where a SMILES comes first, the peptide text is derived from it. Bridges are numbered along the chain shown (N, C = ends). Roman numbers before positions name the chains, in order. [ ]: non-standard residue; d: D form. Actinocin(9to1) = Cc1c2oc3c(C)ccc(C(=O)[*:1])c3nc-2c(C(=O)[*:2])c(N)c1=O; NMeV = CN[C@H](C(=O)O)C(C)C; Sar = CNCC(=O)O

Assays:
HepG2 cells [1] = tested on: HepG2 cells
HepG2 cells [2] = tested on: HepG2 cells; remark: listed apart in the source
[3] = tested on: CYP competent primary hepatocytes; details: cited from earlier work
HepG2 cells [4] = tested on: HepG2 cells; remark: listed apart in the source

## Cc1c2oc3c(C)ccc(C(=O)N[C@@H]4C(=O)N[C@H](C(C)C)C(=O)N5CCC[C@H]5C(=O)N(C)CC(=O)N(C)[C@@H](C(C)C)C(=O)O[C@@H]4C)c3nc-2c(C(=O)N[C@@H]2C(=O)N[C@H](C(C)C)C(=O)N3CCC[C@H]3C(=O)N(C)CC(=O)N(C)[C@@H](C(C)C)C(=O)O[C@@H]2C)c(N)c1=O [ACT, actinomycin D] (I: T[dV]P[Sar][NMeV] / II: T[dV]P[Sar][NMeV]; ester I:1-I:C, II:1-II:C; linker I:N-II:N via Actinocin(9to1))
HepG2 cells [1]
  MYC gene regulation: down-regulated
  RNA polymerase II gene regulation: down-regulation
  topoisomerase II (TOPO2) gene regulation: down-regulation
HepG2 cells [1]; ACT 250 nM, without S9, 48 h
  CDKN1A gene regulation relative to vehicle/S9 control: −1.15 fold
  CRABP2 gene regulation relative to vehicle/S9 control: 2.82* fold
  EMP1 gene regulation relative to vehicle/S9 control: 1.91* fold
  EMP3 gene regulation relative to vehicle/S9 control: 5.68* fold
  IER5 gene regulation relative to vehicle/S9 control: 3.07* fold
  LGALS7 gene regulation relative to vehicle/S9 control: 1.69* fold
  PLAU gene regulation relative to vehicle/S9 control: 3.69* fold
  PROCR gene regulation relative to vehicle/S9 control: 2.58* fold
HepG2 cells [2]; 250 nM, 24 h, without S9
  Categorization: genotoxic
HepG2 cells [2]; 250 nM, 48 h, without S9
  Categorization: genotoxic

## O=P1(N(CCCl)CCCl)NCCCO1 (centres unmarked) [CPA, cyclophosphamide]
HepG2 cells [1]
  EGR1 gene regulation: up-regulation
  gene expression changes, single compound analysis vs vehicle controls: extremely weak or no statistically significant

## CCN(CC)N=O [DEN, N-nitrosodiethylamine]
HepG2 cells [1]
  EGR1 gene regulation: up-regulation
  number of down-regulated genes: 57
  number of up-regulated genes: 88
HepG2 cells [1]; DEN 25 mM, +S9, 48 h
  CDKN1A gene regulation relative to vehicle/S9 control: 1.95* fold
  CRABP2 gene regulation relative to vehicle/S9 control: 2.09* fold
  EMP1 gene regulation relative to vehicle/S9 control: 1.84* fold
  EMP3 gene regulation relative to vehicle/S9 control: 2.26* fold
  IER5 gene regulation relative to vehicle/S9 control: 1.50* fold
  LGALS7 gene regulation relative to vehicle/S9 control: 1.77 fold
  PLAU gene regulation relative to vehicle/S9 control: 1.84 fold
  PROCR gene regulation relative to vehicle/S9 control: 1.76* fold
HepG2 cells [1]; DEN 25 mM, without S9, 48 h
  CDKN1A gene regulation relative to vehicle/S9 control: −1.19 fold
  CRABP2 gene regulation relative to vehicle/S9 control: 1.54* fold
  EMP1 gene regulation relative to vehicle/S9 control: 1.61* fold
  EMP3 gene regulation relative to vehicle/S9 control: 1.04 fold
  IER5 gene regulation relative to vehicle/S9 control: 1.06 fold
  LGALS7 gene regulation relative to vehicle/S9 control: 1.11 fold
  PLAU gene regulation relative to vehicle/S9 control: 1.86* fold
  PROCR gene regulation relative to vehicle/S9 control: 1.30 fold
HepG2 cells [1]; DEN 50 mM, +S9, 48 h
  CDKN1A gene regulation relative to vehicle/S9 control: 2.20* fold
  CRABP2 gene regulation relative to vehicle/S9 control: 1.80* fold
  EMP1 gene regulation relative to vehicle/S9 control: 2.09* fold
  EMP3 gene regulation relative to vehicle/S9 control: 2.03* fold
  IER5 gene regulation relative to vehicle/S9 control: 1.51 fold
  LGALS7 gene regulation relative to vehicle/S9 control: 1.97* fold
  PLAU gene regulation relative to vehicle/S9 control: 1.59* fold
  PROCR gene regulation relative to vehicle/S9 control: 1.63* fold
HepG2 cells [1]; DEN 50 mM, without S9, 48 h
  CDKN1A gene regulation relative to vehicle/S9 control: −1.48* fold
  CRABP2 gene regulation relative to vehicle/S9 control: 1.40 fold
  EMP1 gene regulation relative to vehicle/S9 control: 1.37 fold
  EMP3 gene regulation relative to vehicle/S9 control: 1.02 fold
  IER5 gene regulation relative to vehicle/S9 control: 1.03 fold
  LGALS7 gene regulation relative to vehicle/S9 control: 1.23* fold
  PLAU gene regulation relative to vehicle/S9 control: 1.44 fold
  PROCR gene regulation relative to vehicle/S9 control: 1.20 fold
[3]
  concentrations giving a positive response: 10000 to 32000 µM
HepG2 cells [4]; with S9 (MAS)
  classification by 91 gene-classifier: genotoxic
HepG2 cells [4]; without S9
  classification by 91 gene-classifier: non-genotoxic

## Cc1c2ccccc2c(C)c2c1ccc1ccccc12 [DMBA, 7,12-dimethylbenz[a]anthracene]
HepG2 cells [1]; DMBA 10 μM w/o S9
  gene expression changes, single compound analysis vs vehicle controls: extremely weak or no statistically significant
HepG2 cells [1]; DMBA 10 μM, +S9, 48 h
  CDKN1A gene regulation relative to vehicle/S9 control: 3.18* fold
  CRABP2 gene regulation relative to vehicle/S9 control: 2.31* fold
  EMP1 gene regulation relative to vehicle/S9 control: 1.93* fold
  EMP3 gene regulation relative to vehicle/S9 control: 2.61* fold
  IER5 gene regulation relative to vehicle/S9 control: 1.83* fold
  LGALS7 gene regulation relative to vehicle/S9 control: 1.93* fold
  PLAU gene regulation relative to vehicle/S9 control: 2.13* fold
  PROCR gene regulation relative to vehicle/S9 control: 2.26* fold
HepG2 cells [1]; DMBA 10 μM, without S9, 48 h
  CDKN1A gene regulation relative to vehicle/S9 control: 1.36 fold
  CRABP2 gene regulation relative to vehicle/S9 control: 1.10 fold
  EMP1 gene regulation relative to vehicle/S9 control: 1.11 fold
  EMP3 gene regulation relative to vehicle/S9 control: 1.18 fold
  IER5 gene regulation relative to vehicle/S9 control: 1.30* fold
  LGALS7 gene regulation relative to vehicle/S9 control: 1.25* fold
  PLAU gene regulation relative to vehicle/S9 control: 1.29* fold
  PROCR gene regulation relative to vehicle/S9 control: 1.18 fold
HepG2 cells [1]; DMBA 75 μM w/o S9
  regulation of the 91 genes: relatively weak
HepG2 cells [1]; DMBA 75 μM, without S9, 48 h
  CDKN1A gene regulation relative to vehicle/S9 control: 1.50* fold
  CRABP2 gene regulation relative to vehicle/S9 control: 1.27 fold
  EMP1 gene regulation relative to vehicle/S9 control: 1.31 fold
  EMP3 gene regulation relative to vehicle/S9 control: 1.38* fold
  IER5 gene regulation relative to vehicle/S9 control: 1.26* fold
  LGALS7 gene regulation relative to vehicle/S9 control: 1.26 fold
  PLAU gene regulation relative to vehicle/S9 control: 1.53* fold
  PROCR gene regulation relative to vehicle/S9 control: 1.32* fold
HepG2 cells [4]; 75 μM w/o S9
  prediction using the 91 top-scored genes: predicted correctly
HepG2 cells [2]; 10 μM, 48 h, with S9
  Categorization: genotoxic
HepG2 cells [2]; 75 μM, 48 h, without S9
  Categorization: genotoxic^#
HepG2 cells [2]; DMBA 10 μM, 48 h, without S9
  Categorization: non-genotoxic

## COS(C)(=O)=O [MMS, methyl methanesulfonate]
HepG2 cells [1]
  EGR1 gene regulation: up-regulation
  MYC gene regulation: down-regulated
HepG2 cells [1]; after 24 h and 48 h treatment
  AP endonuclease 2 (APEX2) gene regulation: up-regulated
HepG2 cells [1]; after 48 h exposure
  β-polymerase (POLB) gene regulation: up-regulated

## aflatoxin B1 [AFB1]
HepG2 cells [1]
  EGR1 gene regulation: up-regulation
  gene expression changes, single compound analysis vs vehicle controls: extremely weak or no statistically significant
